Assay results reported in ChEMBL document CHEMBL5523732, “Structure-Guided Design of Potent Coronavirus Inhibitors with a 2-Pyrrolidone Scaffold: Biochemical, Crystallographic, and Virological Studies” (J Med Chem, 2024).

Assays:
[1] = Cytotoxicity against cat CRFK cells incubated for 72 hrs by CytoTox 96 analysis; assay type: toxicity, cell-based, Felis catus
[2] = target: Replicase polyprotein 1ab (Severe acute respiratory syndrome coronavirus 2, UniProt P0DTD1); experiment: Inhibition of full length N-terminal his6-tagged SARS-CoV-2 3CL protease using FAM-SAVLQ as substrate preincubated with compound for 30 mins followed by substrate addition and measured after 30 mins by FRET assay
[3] = Inhibition of MERS-CoV 3CLpro using SG-QXL520 as substrate preincubated with compound for 30 mins followed by susbtrate addition and measured after 30 mins by FRET assay; design: species or system Middle East respiratory syndrome-related coronavirus
[4] = system: SARS-CoV-2; experiment: Antiviral activity against SARS CoV-2 Wuhan-Hu-1 infected in HEK293T cells incubated for 24 hrs; assay type: functional, organism-based; settings: Severe acute respiratory syndrome coronavirus 2, Wuhan-Hu-1, HEK-293T

Row | SMILES | CC50 at 72 h [1] | IC50 [2] | IC50 [3] | EC50 [4]
1 | CC(C)C[C@H](NC(=O)OCC1CCN(Cc2cccc(C(F)(F)F)c2)C1=O)C(=O)N[C@@H](C[C@@H]1CCNC1=O)C(O)S(=O)(=O)O (stereo partly drawn) | > 50 µM | 0.88 µM | 0.06 µM | –
2 | CC(C)C[C@H](NC(=O)OC[C@@H]1CCC(=O)N1C[C@H]1C[C@@H]2CC[C@H]1C2)C(=O)N[C@H](C=O)C[C@@H]1CCNC1=O | > 50 µM | 0.5 µM | 0.07 µM | –
3 | CC(C)C[C@H](NC(=O)OCC1CC(=O)N(CC2CC3C=CC2C3)C1)C(=O)N[C@@H](C[C@@H]1CCNC1=O)C(O)S(=O)(=O)O (stereo partly drawn) | > 50 µM | 0.19 µM | 0.08 µM | 0.35 µM
4 | CC(C)C[C@H](NC(=O)OCC1CC(=O)N(CC2CCCCC2)C1)C(=O)N[C@@H](C[C@@H]1CCNC1=O)C(O)S(=O)(=O)O (stereo partly drawn) | > 50 µM | 0.37 µM | 0.05 µM | 0.15 µM
5 | CC(C)C[C@H](NC(=O)OCC1CCN(Cc2ccccc2)C1=O)C(=O)N[C@H](C=O)C[C@@H]1CCNC1=O (stereo partly drawn) | > 50 µM | 0.79 µM | 0.06 µM | –
6 | CC(C)C[C@H](NC(=O)OC[C@@H]1CCC(=O)N1Cc1cccc(Cl)c1)C(=O)N[C@@H](C[C@@H]1CCNC1=O)C(O)S(=O)(=O)O (stereo partly drawn) | > 50 µM | 0.1 µM | 0.018 µM | 0.12 µM
7 | CC(C)C[C@H](NC(=O)OC[C@@H]1CCC(=O)N1Cc1cccc(F)c1)C(=O)N[C@@H](C[C@@H]1CCNC1=O)C(O)S(=O)(=O)O (stereo partly drawn) | > 50 µM | 0.16 µM | 0.24 µM | 0.04 µM
8 | CC(C)C[C@H](NC(=O)OC[C@@H]1CCC(=O)N1CCC1CCCCC1)C(=O)N[C@@H](C[C@@H]1CCNC1=O)C(O)S(=O)(=O)O (stereo partly drawn) | > 50 µM | 0.58 µM | 0.09 µM | –
9 | CC(C)C[C@H](NC(=O)OCC1CCN(Cc2cccc(C(F)(F)F)c2)C1=O)C(=O)N[C@H](C=O)C[C@@H]1CCNC1=O (stereo partly drawn) | > 50 µM | 0.85 µM | 0.07 µM | –
10 | CC(C)C[C@H](NC(=O)OCC1CC(=O)N(Cc2cccc(C(F)(F)F)c2)C1)C(=O)N[C@@H](C[C@@H]1CCNC1=O)C(O)S(=O)(=O)O (stereo partly drawn) | > 50 µM | 0.35 µM | 0.07 µM | –
11 | CC(C)C[C@H](NC(=O)OCC1CCN(CC2CCCCC2)C1=O)C(=O)N[C@@H](C[C@@H]1CCNC1=O)C(O)S(=O)(=O)O (stereo partly drawn) | > 50 µM | 0.22 µM | 0.17 µM | 0.02 µM
12 | CC(C)C[C@H](NC(=O)OC[C@@H]1CCC(=O)N1Cc1ccccc1)C(=O)N[C@H](C=O)C[C@@H]1CCNC1=O | > 50 µM | 0.43 µM | 0.13 µM | –
13 | CC(C)C[C@H](NC(=O)OCC1CC(=O)N(CC2CC3CCC2C3)C1)C(=O)N[C@@H](C[C@@H]1CCNC1=O)C(O)S(=O)(=O)O (stereo partly drawn) | > 50 µM | 0.17 µM | 0.07 µM | 0.08 µM
14 | CC(C)C[C@H](NC(=O)OC[C@@H]1CCC(=O)N1CC1CCCCC1)C(=O)N[C@@H](C[C@@H]1CCNC1=O)C(O)S(=O)(=O)O (stereo partly drawn) | > 50 µM | 0.28 µM | 0.06 µM | 0.79 µM
15 | CC(C)C[C@H](NC(=O)OC[C@@H]1CCC(=O)N1C[C@H]1C[C@@H]2C=C[C@H]1C2)C(=O)N[C@H](C=O)C[C@@H]1CCNC1=O | > 50 µM | 0.418 µM | 0.06 µM | –
16 | CC(C)C[C@H](NC(=O)OC[C@@H]1CCC(=O)N1Cc1ccc2c(c1)OC(F)(F)O2)C(=O)N[C@@H](C[C@@H]1CCNC1=O)C(O)S(=O)(=O)O (stereo partly drawn) | > 50 µM | 0.32 µM | 0.05 µM | 0.45 µM
17 | CC(C)C[C@H](NC(=O)OCC1CCN(C[C@H]2C[C@H]3C=C[C@@H]2C3)C1=O)C(=O)N[C@@H](C[C@@H]1CCNC1=O)C(O)S(=O)(=O)O (stereo partly drawn) | > 50 µM | 0.55 µM | 0.15 µM | –
18 | CC(C)C[C@H](NC(=O)OCC1CC(=O)N(CC2CC3C=CC2C3)C1)C(=O)N[C@H](C=O)C[C@@H]1CCNC1=O (stereo partly drawn) | > 50 µM | 0.19 µM | 0.08 µM | 0.28 µM
19 | CC(C)C[C@H](NC(=O)OCC1CCN(CC2CCCCC2)C1=O)C(=O)N[C@H](C=O)C[C@@H]1CCNC1=O (stereo partly drawn) | > 50 µM | 0.23 µM | 0.31 µM | 0.02 µM
20 | CC(C)C[C@H](NC(=O)OC[C@@H]1CCC(=O)N1C[C@H]1C[C@@H]2CC[C@H]1C2)C(=O)N[C@@H](C[C@@H]1CCNC1=O)C(O)S(=O)(=O)O (stereo partly drawn) | > 50 µM | 0.41 µM | 0.06 µM | –
21 | CC(C)C[C@H](NC(=O)OCC1CCN(C[C@H]2C[C@H]3CC[C@@H]2C3)C1=O)C(=O)N[C@H](C=O)C[C@@H]1CCNC1=O (stereo partly drawn) | > 50 µM | 0.43 µM | 0.09 µM | –
22 | CC(C)C[C@H](NC(=O)OC[C@@H]1CCC(=O)N1Cc1ccccc1)C(=O)N[C@@H](C[C@@H]1CCNC1=O)C(O)S(=O)(=O)O (stereo partly drawn) | > 50 µM | 0.49 µM | 0.09 µM | –
23 | CC(C)C[C@H](NC(=O)OCC1CCN(Cc2ccco2)C1=O)C(=O)N[C@@H](C[C@@H]1CCNC1=O)C(O)S(=O)(=O)O (stereo partly drawn) | > 50 µM | 2.01 µM | 0.15 µM | –

Row | SMILES | CC50 at 72 h [1] | IC50 [2] | IC50 [3] | EC50 [4]
24 | CC(C)C[C@H](NC(=O)OC[C@@H]1CCC(=O)N1CC1CCC(F)(F)CC1)C(=O)N[C@H](C=O)C[C@@H]1CCNC1=O | > 50 µM | 0.55 µM | 0.06 µM | –
25 | CC(C)C[C@H](NC(=O)OC[C@@H]1CCC(=O)N1Cc1ccco1)C(=O)N[C@H](C=O)C[C@@H]1CCNC1=O | > 50 µM | 0.33 µM | 0.06 µM | –
26 | CC(C)C[C@H](NC(=O)OCC1CC(=O)N(Cc2ccco2)C1)C(=O)N[C@H](C=O)C[C@@H]1CCNC1=O (stereo partly drawn) | > 50 µM | 0.55 µM | 0.07 µM | –
27 | CC(C)C[C@H](NC(=O)OC[C@@H]1CCC(=O)N1Cc1cccc(F)c1)C(=O)N[C@H](C=O)C[C@@H]1CCNC1=O | > 50 µM | 0.11 µM | 0.43 µM | 0.05 µM
28 | CC(C)C[C@H](NC(=O)OCC1CC(=O)N(Cc2ccccc2)C1)C(=O)N[C@@H](C[C@@H]1CCNC1=O)C(O)S(=O)(=O)O (stereo partly drawn) | > 50 µM | 0.65 µM | 0.05 µM | –
29 | CC(C)C[C@H](NC(=O)OC[C@@H]1CCC(=O)N1Cc1cccc(C(F)(F)F)c1)C(=O)N[C@@H](C[C@@H]1CCNC1=O)C(O)S(=O)(=O)O (stereo partly drawn) | > 50 µM | 0.77 µM | 0.05 µM | 0.49 µM
30 | CC(C)C[C@H](NC(=O)OCC1CCN(Cc2ccco2)C1=O)C(=O)N[C@H](C=O)C[C@@H]1CCNC1=O (stereo partly drawn) | > 50 µM | 1.96 µM | 0.13 µM | –
31 | CC(C)C[C@H](NC(=O)OC[C@@H]1CCC(=O)N1Cc1ccco1)C(=O)N[C@@H](C[C@@H]1CCNC1=O)C(O)S(=O)(=O)O (stereo partly drawn) | > 50 µM | 0.25 µM | 0.05 µM | –
32 | CC(C)C[C@H](NC(=O)OC[C@@H]1CCC(=O)N1CCc1ccccc1)C(=O)N[C@@H](C[C@@H]1CCNC1=O)C(O)S(=O)(=O)O (stereo partly drawn) | > 50 µM | 0.55 µM | 0.16 µM | –
33 | CC(C)C[C@H](NC(=O)OCC1CCN(C[C@H]2C[C@H]3CC[C@@H]2C3)C1=O)C(=O)N[C@@H](C[C@@H]1CCNC1=O)C(O)S(=O)(=O)O (stereo partly drawn) | > 50 µM | 0.51 µM | 0.13 µM | –
34 | CC(C)C[C@H](NC(=O)OC[C@@H]1CCC(=O)N1Cc1cccc(C(F)(F)F)c1)C(=O)N[C@H](C=O)C[C@@H]1CCNC1=O | > 50 µM | 0.74 µM | 0.05 µM | 0.56 µM
35 | CC(C)C[C@H](NC(=O)OC[C@H]1CCC(=O)N1CC1CCCCC1)C(=O)N[C@H](C=O)C[C@@H]1CCNC1=O | > 50 µM | 0.5 µM | 0.07 µM | –
36 | CC(C)C[C@H](NC(=O)OC[C@@H]1CCC(=O)N1CCC1CCCCC1)C(=O)N[C@H](C=O)C[C@@H]1CCNC1=O | > 50 µM | 0.5 µM | 0.09 µM | –
37 | CC(C)C[C@H](NC(=O)OC[C@@H]1CCC(=O)N1CC1CCC(F)(F)CC1)C(=O)N[C@@H](C[C@@H]1CCNC1=O)C(O)S(=O)(=O)O (stereo partly drawn) | > 50 µM | 0.54 µM | 0.06 µM | –
38 | CC(C)C[C@H](NC(=O)OC[C@@H]1CCC(=O)N1C[C@H]1C[C@@H]2C=C[C@H]1C2)C(=O)N[C@@H](C[C@@H]1CCNC1=O)C(O)S(=O)(=O)O (stereo partly drawn) | > 50 µM | 0.45 µM | 0.06 µM | –
39 | CC(C)C[C@H](NC(=O)OC[C@@H]1CCC(=O)N1CCc1ccccc1)C(=O)N[C@H](C=O)C[C@@H]1CCNC1=O | > 50 µM | 0.73 µM | 0.14 µM | –
40 | CC(C)C[C@H](NC(=O)OCC1CC(=O)N(Cc2cccc(C(F)(F)F)c2)C1)C(=O)N[C@H](C=O)C[C@@H]1CCNC1=O (stereo partly drawn) | > 50 µM | 0.41 µM | 0.06 µM | –
41 | CC(C)C[C@H](NC(=O)OC[C@H]1CCC(=O)N1CC1CCCCC1)C(=O)N[C@@H](C[C@@H]1CCNC1=O)C(O)S(=O)(=O)O (stereo partly drawn) | > 50 µM | 0.51 µM | 0.08 µM | –
42 | CC(C)C[C@H](NC(=O)OCC1CC(=O)N(Cc2ccco2)C1)C(=O)N[C@@H](C[C@@H]1CCNC1=O)C(O)S(=O)(=O)O (stereo partly drawn) | > 50 µM | 0.56 µM | 0.08 µM | –
43 | CC(C)C[C@H](NC(=O)OCC1CCN(Cc2ccccc2)C1=O)C(=O)N[C@@H](C[C@@H]1CCNC1=O)C(O)S(=O)(=O)O (stereo partly drawn) | > 50 µM | 0.82 µM | 0.06 µM | –
44 | CC(C)C[C@H](NC(=O)OCC1CCN(C[C@H]2C[C@H]3C=C[C@@H]2C3)C1=O)C(=O)N[C@H](C=O)C[C@@H]1CCNC1=O (stereo partly drawn) | > 50 µM | 0.46 µM | 0.08 µM | –
45 | CC(C)C[C@H](NC(=O)OCC1CC(=O)N(Cc2ccccc2)C1)C(=O)N[C@H](C=O)C[C@@H]1CCNC1=O (stereo partly drawn) | > 50 µM | 0.72 µM | 0.08 µM | –
